Assay [1] deals with Prothrombin (Bos taurus, UniProt P00735). Put plainly: Inhibition of bovine thrombin using Bz-Phe-Val-Arg-pNA as substrate incubated for 5 mins prior to substrate addition measured after 30 mins by spectrophotometric analysis.
Another assay addresses Cathepsin B (Homo sapiens, UniProt P07858). Put plainly: Inhibition of cathepsin B using Z-Phe-Arg-MCA as substrate incubated for 10 mins prior to substrate addition measured after 30 mins by fluorimetric analysis.
Assay [2] in a line: Selectivity ratio of EC50 for bovine thrombin to EC50 for cathepsin B.
A short description of assay [3]: Inhibition of trypsin.
For the next assay, the target named is Plasminogen (Homo sapiens, UniProt P00747). Put plainly: Inhibition of plasmin.
Assay [4] has as its target Prothrombin (Homo sapiens, UniProt P00734). As to the kind of experiment: Inhibition of thrombin.

As a reminder, the EC50 is the concentration at which the effect is half-maximal. A lower EC50 goes with higher potency in that assay.

Chain of Plasminogen (P00747 97-580 limits assumed): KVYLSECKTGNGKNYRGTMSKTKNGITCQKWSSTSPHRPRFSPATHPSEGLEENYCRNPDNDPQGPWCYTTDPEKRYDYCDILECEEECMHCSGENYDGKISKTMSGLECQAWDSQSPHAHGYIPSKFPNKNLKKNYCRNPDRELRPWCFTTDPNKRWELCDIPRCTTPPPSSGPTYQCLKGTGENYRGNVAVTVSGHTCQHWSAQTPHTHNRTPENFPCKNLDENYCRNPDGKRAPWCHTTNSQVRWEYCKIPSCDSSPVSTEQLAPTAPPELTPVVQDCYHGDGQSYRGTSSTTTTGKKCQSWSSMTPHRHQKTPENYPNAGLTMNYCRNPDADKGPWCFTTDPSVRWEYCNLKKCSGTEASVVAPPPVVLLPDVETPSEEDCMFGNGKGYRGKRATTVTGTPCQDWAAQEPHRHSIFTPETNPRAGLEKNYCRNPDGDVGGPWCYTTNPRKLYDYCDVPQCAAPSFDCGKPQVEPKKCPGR
Chain of Plasminogen (P00747 581-810 limits assumed): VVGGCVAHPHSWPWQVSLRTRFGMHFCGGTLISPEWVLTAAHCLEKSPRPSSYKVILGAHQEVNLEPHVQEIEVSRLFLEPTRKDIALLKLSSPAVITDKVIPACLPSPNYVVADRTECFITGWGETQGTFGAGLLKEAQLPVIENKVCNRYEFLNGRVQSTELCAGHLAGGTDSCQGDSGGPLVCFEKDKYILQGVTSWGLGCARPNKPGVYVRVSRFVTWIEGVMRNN

For `C[C@H]1C[C@@H](C(=O)N(C)[C@H](CCCCN)C(=O)O)N(C(=O)[C@@H](CCc2ccc(O)cc2)NC(=O)[C@H](O)Cc2ccc(O)cc2)C1` [SPUMIGIN J], the EC50 on Prothrombin [1] amounted to 4.9 µM; at Cathepsin B it was 0.7 µM. Besides, the Ratio EC50 in assay [2] worked out at 7.
In assay [3], `C[C@H]1C[C@@H](C(=O)N[C@H](CO)CCCNC(=N)N)N(C(=O)[C@@H](CCc2ccc(O)cc2)NC(=O)[C@H](O)Cc2ccc(O)cc2)C1` [SPUMIGIN A] came in with a concentration giving a half-maximal response (EC50) of 26.3 µM. Further, the Ratio EC50 in assay [2] came out at 10.
`C[C@H]1C[C@@H](C(=O)N[C@@H](CCCNC(=N)N)C(=O)O)N(C(=O)[C@@H](CCc2ccc(O)cc2)NC(=O)[C@H](O)Cc2ccc(O)cc2)C1` [SPUMIGIN B1] yielded an EC50 in assay [3] of 33.1 µM.
On to `C[C@H]1C[C@@H](C(=O)N[C@H](CO)CCCN=C(N)N)N(C(=O)[C@@H](CCc2ccc(O)cc2)NC(=O)[C@H](O)Cc2ccc(O)cc2)C1` [SPUMIGIN A], for which the EC50 on Plasminogen was 4.9 µM; at Prothrombin [4], 7.5 µM; on Prothrombin [1], 2.1 µM; on Cathepsin B, 0.2 µM.
`C[C@H]1C[C@@H](C(=O)NC(C=O)CCCNC(=N)N)N(C(=O)[C@@H](CCc2ccc(O)cc2)NC(=O)[C@H](O)Cc2ccc(O)cc2)C1` (stereo partly specified) [SPUMIGIN E] yielded an EC50 in assay [3] of 0.3 µM.

The values are drawn from ChEMBL document CHEMBL2146468, “Thrombin inhibitors from the freshwater cyanobacterium Anabaena compacta” (J Nat Prod, 2012).
